Measurements taken from paper PMC7615343, “Fluorination Influences the Bioisostery of Myo-Inositol Pyrophosphate Analogs” (Chemistry (Weinheim an der Bergstrasse, Germany), 2023).

How the values were obtained:
[1] = target: T1, PPIP5K2^1-366 (human PPIP5K2 kinase domain) (Homo sapiens, UniProt O43314); conditions: published value; read-out: IC50, inhibition of the reverse kinase activity of PPIP5K2KD; cited from earlier work
T1 construct: one comprised residues 1–366; made in house
T1 sequence (O43314 1-366): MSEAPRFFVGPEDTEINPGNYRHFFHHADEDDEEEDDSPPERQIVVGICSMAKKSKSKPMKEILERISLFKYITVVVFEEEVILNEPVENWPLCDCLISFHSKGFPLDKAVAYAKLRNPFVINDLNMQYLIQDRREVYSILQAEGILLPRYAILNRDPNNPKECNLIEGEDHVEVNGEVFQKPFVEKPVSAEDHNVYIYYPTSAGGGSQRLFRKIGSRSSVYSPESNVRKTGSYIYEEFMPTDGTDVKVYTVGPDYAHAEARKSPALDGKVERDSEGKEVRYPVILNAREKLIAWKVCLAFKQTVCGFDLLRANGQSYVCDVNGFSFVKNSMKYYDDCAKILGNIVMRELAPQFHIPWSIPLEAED

[2] = target: T1, PPIP5K2^1-366 (human PPIP5K2 kinase domain); experiment: Isothermal titration calorimetry of ligand binding to PPIP5K2KD; conditions: ITC, 25°C; for ΔH / ΔS: 7.5 μM PPIP5K2^1-366, 75 μM ligand, pH 7.2; for Kd: 7.5 μM PPIP5K2^1-366 in cell, 75 μM ligand in syringe, pH 7.2, 1mM AMP-PNP, 1mM MgCl2, read-out: Kd (apparent)
Text: We next used isothermal titration calorimetry (ITC) to analyze the interactions of PPIP5K2^KD with 5PP-IP5 and each of the four analogs studied herein (Figure 5A-E). […] At the same time, the enthalpic gain for binding was largest for 5PCF2Am-IP5 and 5PA-IP5. A possible explanation may be that these two ligands are less strongly hydrated, due to their lower overall charge. The enthalpic cost for dehydration of 5PCF2Am-IP5 and 5PA-IP5 is therefore lower, compared to the other molecules, resulting in a higher enthalpic gain overall. A less strongly hydrated ligand will also release fewer water molecules upon binding, consistent with the lower entropic gains.
Figure 5 Analysis of ligand binding to the PPIP5K2^KD by ITC. Test solutions contained 7.5 μM of PPIP5K2^1-366 in the sample cell and 75 μM ligand in the syringe. Other details are provided in the Methods Section. Representative thermograms (1 of 3 replicates) are shown for titration of either (A) 5PP-IP5; (B) 5PCPF2P-IP5; (C) 5PCP-IP5; (D) 5PCF2Am-IP5; (E) 5PA-IP5. (F) Corresponding thermodynamic data. TEXT PRINTED IN THE PICTURE: (F) 5PP-: Kd (nM): 123 ± 13; ΔH (kJ/mol): -26 ± 2; ΔS (kJ/mol/deg): 0.046 ± 0.008 | (F) 5PCF2-: Kd (nM): 246 ± 10; ΔH (kJ/mol): -16 ± 1; ΔS (kJ/mol/deg): 0.072 ± 0.005 | (F) 5PCP-: Kd (nM): 100 ± 10; ΔH (kJ/mol): -20 ± 2; ΔS (kJ/mol/deg): 0.067 ± 0.016 | (F) 5PCF2-Am-: Kd (nM): 90 ± 13; ΔH (kJ/mol): -38 ± 2; ΔS (kJ/mol/deg): 0.007 ± 0.004 | (F) 5PA-: Kd (nM): 90 ± 7; ΔH (kJ/mol): -36 ± 3; ΔS (kJ/mol/deg): 0.013 ± 0.008 […]
(§1) Calorimetry experiments were performed using a MicroCal PEAQ-ITC (Malvern Panalytical) with 7.5 μM recombinant PPIP5K21-366 in the sample cell and 75 μM of ligand in the syringe, each of which was maintained at 25°C in buffer containing 20 mM HEPES, pH 7.2, 150 mM KCl, 0.05 mM EDTA, 1mM AMP-PNP, 1mM MgCl2 as indicated. The sample cell (volume = 204 μL) and the syringe were cleaned before each run. Thermograms were constructed from 13 injections, each of which involved 3 μL of ligand delivered for 6 s, with an equilibration time of 150-300 s between each injection. The stirring speed was set to 750 rpm. Data were fitted to a single binding site model using the analysis software provided by the manufacturer. At least three runs were performed for each condition.
Protein expression and purification.
Throughout the main text, PPIP5K2KD is deployed as an abbreviation for the human PPIP5K2 kinase domain. However, two different constructs were utilized, as described in the figure legends and within the Methods section below: one comprised residues 1–366 (PPIP5K21-366) and the other comprised residues 41–366 (PPIP5K241-366). Both constructs were expressed and purified as described previously.[6] The human DIPP1 construct (residues 1-148) was expressed and purified as described in [7]. […]
The molecular graphics representations wer e prepared with the program PyMol (Schrödinger, LLC). Atomic coordinates an d structure factors have been deposited with the Protein Data Bank with accession codes 8G9C, 8G9D, 8G9E.
PPIP5K2KD reverse kinase assay […]
Isothermal titration calorimetry
as §1, with “PPIP5K21–366” for “PPIP5K21-366”, “2 04 µL)” for “204 μL)”, “µL” for “μL”, “150 -300” for “150-300”, “cond ition. […]” for “condition.”

Row | Compound | IC50 [1] | ΔH [2] | ΔS [2] | Kd [2]
1 | O=C(CP(=O)(O)O)O[C@@H]1[C@@H](OP(=O)(O)O)[C@H](OP(=O)(O)O)[C@H](OP(=O)(O)O)[C@H](OP(=O)(O)O)[C@H]1OP(=O)(O)O [5PA-IP5] | 129 nM | -8.6 ± 0.72 kcal/mol | 0.013 ± 0.008 kJ/mol/deg | 90 ± 7 nM
2 | O=C(N[C@@H]1[C@@H](OP(=O)(O)O)[C@H](OP(=O)(O)O)[C@H](OP(=O)(O)O)[C@H](OP(=O)(O)O)[C@H]1OP(=O)(O)O)C(F)(F)P(=O)(O)O [5PCF2Am-IP5] | – | -9.08 ± 0.48 kcal/mol | 0.007 ± 0.004 kJ/mol/deg | 90 ± 13 nM
3 | O=P(O)(O)O[C@H]1[C@@H](OP(=O)(O)O)[C@H](OP(=O)(O)O)[C@@H](OP(=O)(O)OP(=O)(O)O)[C@H](OP(=O)(O)O)[C@H]1OP(=O)(O)O [5PP-IP5, 5-diphosphoinositol pentakisphosphate] | – | -6.21 ± 0.48 kcal/mol | 0.046 ± 0.008 kJ/mol/deg | 123 nM
